Source: patent US9192639B1, “Convolvulus extract for treatment of peptic ulcer and helicobacter pylori infection” (KING SAUD UNIVERSITY, priority 2014, dated 2015)

Legend:
[1] = system: absolute ethanol-induced ulcer in Wistar rats; assay: Anti-ulcerogenic activity, absolute ethanol-induced ulcer model; assay type: in vivo; conditions: oral 100 mg/kg; for % Protection: % protection of control ulcer, 100 mg/kg
Procedure: Evaluation of the anti-ulcerogenic activity was carried out using an absolute ethanol-induced ulcer model according to published methods. About 30 Wistar rats were divided into 5 groups, each of 6 rats. Group 1 received the vehicle and served as control group. Group 2 received ranitidine (100 mg/kg) and served as a standard group. […] Rats of all groups were fasted for 24 hours, and then all medications were administered orally. […] The stomachs were rapidly removed, opened along their greater curvature, and gently rinsed under running tap water. The number of lesions in the glandular part of the stomach was measured under an illuminated magnifying microscope (10×). Long lesions were counted and their lengths were measured. Petechial lesions were counted, and then each five petechial lesions were taken as 1 mm of ulcer. The mucosal lesions were quantified by the scoring system (0-5), where 0=no damage; 1=Local edema and inflammation without ulcers; 2=One ulcer without inflammation; 3=one to two ulcers with inflammation & lesion diameter <1 cm; 4=More than two ulcers with lesion diameter 1-2 cm; 5=Sever ulceration with lesion diameter >2 cm. To calculate the ulcer index (mm), the sum of the total length of long ulcers and petechial lesions in each group of rats was divided by its number. The curative ratio was determined according to the formula: % Protection of control ulcer=Control UI−Test UI/Control UI×100.

[2] = system: H. pylori clinical isolates and reference strain ATCC 43504; assay: Disk diffusion test, anti-Helicobacter pylori activity; assay type: cell-based; parameters: key to Inhibition Zone: *R: Resistant

With `CNC(=C[N+](=O)[O-])NCCSCc1ccc(CN(C)C)o1` [Ranitidine] the “% Protection” value [1] was 46.2%, the “% Protection” value ([1]; listed as ranitidine) was “about 46.2%” and the Score ([1]; mucosal lesion scoring system 0-5) was 2.2.

For `CC1(C)S[C@@H]2[C@H](NC(=O)[C@H](N)c3ccc(O)cc3)C(=O)N2[C@H]1C(=O)O` [Amoxicillin], the “Inhibition Zone” value ([2]; H. pylori strain ATCC 43504, disk 30 μg) was 30 mm, the “Inhibition Zone” value ([2]; H. pylori strain KA01, disk 30 μg) was “R*” and the “Inhibition Zone” value ([2]; H. pylori strain KA01, disk 30 μg, listed as amoxicillin) was “resistant”. The “Inhibition Zone” value ([2]; H. pylori strain KA02, disk 30 μg) was 20 mm, the “Inhibition Zone” value ([2]; H. pylori strain KA03, disk 30 μg) was 21 mm and the “Inhibition Zone” value ([2]; H. pylori strain KA04, disk 30 μg) was 20 mm. For the same compound, the “Inhibition Zone” value ([2]; H. pylori strain KA05, disk 30 μg) was 22 mm, the “Inhibition Zone” value ([2]; H. pylori strain KA07, disk 30 μg) was 25 mm and the “Inhibition Zone” value ([2]; H. pylori strain KAO6, disk 30 μg) was 23 mm. The “Susceptibility of H. pylori isolates by disc diffusion” value ([2]; all isolates with the exception of isolate KA01) was “sensitive”.

With `CC[C@H]1OC(=O)[C@H](C)[C@@H](O[C@H]2C[C@@](C)(OC)[C@@H](O)[C@H](C)O2)[C@H](C)[C@@H](O[C@@H]2O[C@H](C)C[C@H](N(C)C)[C@H]2O)[C@](C)(O)C[C@@H](C)C(=O)[C@H](C)[C@@H](O)[C@]1(C)O` [Erythromycin] the “Inhibition Zone” value ([2]; H. pylori strain ATCC 43504, disk 15 μg) was 28 mm, the “Inhibition Zone” value ([2]; H. pylori strain KA01, disk 15 μg) was 19 mm and the “Inhibition Zone” value ([2]; H. pylori strain KA02, disk 15 μg) was 23 mm. For the same compound, the “Inhibition Zone” value ([2]; H. pylori strain KA03, disk 15 μg) was 22 mm, the “Inhibition Zone” value ([2]; H. pylori strain KA04, disk 15 μg) was 22 mm and the “Inhibition Zone” value ([2]; H. pylori strain KA05, disk 15 μg) was 20 mm. The “Inhibition Zone” value ([2]; H. pylori strain KA07, disk 15 μg) was 23 mm, the “Inhibition Zone” value ([2]; H. pylori strain KAO6, disk 15 μg) was 24 mm and the “Susceptibility of H. pylori isolates by disc diffusion” value ([2]; all of the isolates of H. pylori) was “sensitive”.
